{"source": "patent US20120178147A1", "about": "“MICROBIAL CULTURES AND METHODS FOR ANAEROBIC BIOREMEDIATION” (priority 2009, published 2012)", "key": {"general bacteria": {"system": "general bacteria", "experiment": "qRT-PCR of general bacteria 16S rRNA genes in BDI cultures", "format": "cell-based", "details": "BDI with 1.5 μM TCC or 35 μM TCS", "protocol": "(§1) Quantitative real-time PCR (qRT-PCR) was performed for enumeration of general 16S rRNA genes and Dehalococcoides 16S rRNA genes in culture DehaloR̂2 and Bio-Dechlor INOCULUM. The primers used for general 16S rRNA genes were Bac1055F (5′-ATG GYT GTC GTC ACCT-3′) and Bac1392R (5′-ACG GGC GGT GTG TAC-3′) (Ritalahti et al., 2006), and the probe was Bac16sTaq (FAM-CAA CGA GCG CAA CCC/3-BHQ-1/). The final volume of PCR reactions was 10 μL, and the final concentration of each chemical in a single reaction tube was: 1× RealMasterMix (Fisher Scientific, Pittsburgh, Pa.), 300 nM Probe, 300 nM each Primer, and 130 nM DNA samples. The PCR conditions were as follows: 2 min at 95° C. followed by 40 cycles of 10 s at 95° C., 20 s at 56° C. and 20 s at 68° C. The primers used for Dehalococcoides 16S rRNA genes were Dhc1200F (5′-CTGGAGCTAATCCCCAAAGCT-3′) and Dhc1271R (5′-CAA CTT CAT GCA GGC GGG-3′), and the probe was Dhc1240Pr (FAM-TCCTCAGTTCGGATTGCAGGC TGAA/3-BHQ-1) (He et al., 2003b). The final volume of PCR reactions was 10 μL, and the final concentration of each chemical in a single reaction tube was: 1× RealMasterMix (Fisher Scientific, Pittsburgh, Pa.), 200 nM Probe, 700 nM each Primer, and 130 nM DNA samples. The PCR conditions were as follows: 2 min at 95° C. followed by 40 cycles of 15 s at 95° C., 20 s at 58° C. and 20 s at 68° C.\n(§2) Quantitative Real time PCR (qRT-PCR) was carried out in a spectrofluorimetric thermal cycler (Master cycler, epgradient S, Eppendorf). Calibration curves were performed in triplicate and a linear range of 6 orders of magnitude was obtained. Plasmids containing Dehalococcoides strain BAV1 16S rRNA genes were used as standards to construct general 16S rRNA genes and Dehalococcoides 16S rRNA genes calibration curves. The slopes of the calibration curves for general 16S rRNA genes and Dehalococcoides 16S rRNA genes were −3.46 and −3.94, and the Y intercepts were 38 and 44.2, respectively.\n(§3) DNA Extraction and Quantitative Real-Time PCR. The BDI cultures and DehaloR^2 cultures were shaken vigorously first and then 10 ml of the mixed liquid was removed with a sterile syringe and dispensed into 10 1.5 ml micro centrifuge tubes. These micro centrifuge tubes were then centrifuged at 13,000 rpm for 15 min in order to make a pellet, and the pellet was used for DNA extraction. Qiagen DNeasy Blood & Tissue Kit with modifications to enhance lysis was used for DNA isolation from cultures. DNA samples were stored at −20° C.\nQuantitative real-time PCR (qRT-PCR) was performed for enumeration of general 16S rRNA genes and Dehalococcoides 16S rRNA genes in BDI culture without TCC&TCS, BDI culture with 1.5 μM TCC, BDI culture with 35 μM TCS, D DehaloR̂2 culture without TCC&TCS, DehaloR^2 culture with 1.5 μM TCC and DehaloR̂2^2 culture with 35 μM TCS. […]"}, "Dehalococcoides": {"system": "Dehalococcoides", "experiment": "qRT-PCR of Dehalococcoides 16S rRNA genes in DehaloR̂2 cultures", "format": "cell-based", "details": "for effect on growth / gene copy number of Dehalococcoides in DehaloR̂2 cultures: 1.5 μM TCC or 35 μM TCS", "protocol": "as §1, §2, §3\nQuantitative real-time PCR (qRT-PCR) was performed for enumeration of general 16S rRNA genes and Dehalococcoides 16S rRNA genes in BDI culture without TCC&TCS, BDI culture with 1.5 μM TCC, BDI culture with 35 μM TCS, D DehaloR̂2 culture without TCC&TCS, DehaloR^2 culture with 1.5 μM TCC and DehaloR̂2^2 culture with 35 μM TCS.\nThe primers used for Dehalococcoides 16S rRNA genes were Dhc1200F (5′-[…]-3′) and Dhc1271R (5′-CAACTTCATGCAGGCGGG-3′), and the probe was Dhc1240Pr (FAM-[…]/3-BHQ-1) (He et al., 2003b). The final volume of PCR reactions was 10 μL, and the final concentration of each chemical in a single reaction tube was: 1× RealMasterMix (Fisher Scientific, Pittsburgh, Pa.), 200 nM Probe, 700 nM each Primer, and 130 nM DNA samples. The PCR conditions were as follows: 2 min at 95° C. followed by 40 cycles of 15 s at 95° C., 20 s at 58° C. and 20 s at 68° C.\nThe qRT-PCR was carried out in a spectrofluorimetric thermal cycler (Master cycler, epgradient S, Eppendorf). […]"}}, "note": "“Also recorded” adds a separate entry of the source."}
{"smiles": "O=C(Nc1ccc(Cl)cc1)Nc1ccc(Cl)c(Cl)c1", "note": "[TCC, 3-(4-chlorophenyl)-1-(3,4-dichlorphenyl) urea]", "values": [{"measurement": "General bacteria 16S rRNA gene copies, day 27", "setting": "general bacteria", "value": "1.4×10^8 gene copies/ml"}, {"measurement": "General bacteria 16S rRNA gene copies, initial", "setting": "general bacteria", "value": "7.2×10^7 gene copies/ml"}, {"measurement": "effect on growth / gene copy number of Dehalococcoides in DehaloR̂2 cultures", "setting": "Dehalococcoides", "value": "did not exert any inhibitory effect on the growth of Dehalococcoides"}, {"measurement": "Dehalococcoides 16S rRNA gene copies, day 22", "setting": "Dehalococcoides; DehaloR̂2 with 1.5 μM TCC", "value": "3.9×10^7 gene copies/ml"}, {"measurement": "Dehalococcoides 16S rRNA gene copies, day 22 relative to initial", "setting": "Dehalococcoides; DehaloR̂2 with 1.5 μM TCC", "value": 11.6, "unit": "times"}, {"measurement": "Dehalococcoides 16S rRNA gene copies, initial", "setting": "Dehalococcoides; DehaloR̂2 with 1.5 μM TCC", "value": "3.3×10^6 gene copies/ml"}]}
{"smiles": "Oc1cc(Cl)ccc1Oc1ccc(Cl)cc1Cl", "note": "[TCS, 5-chloro-2-[2,4-dichloro-phenoxy]-phenol]", "values": [{"measurement": "General bacteria 16S rRNA gene copies, day 27", "setting": "general bacteria", "value": "3.3×10^8 gene copies/ml"}, {"measurement": "General bacteria 16S rRNA gene copies, initial", "setting": "general bacteria", "value": "1.0×10^8 gene copies/ml"}, {"measurement": "effect on growth / gene copy number of Dehalococcoides in DehaloR̂2 cultures", "setting": "Dehalococcoides", "value": "almost remained constant; also recorded: significantly inhibited the growth of Dehalococcoides"}]}
